SMILES strings stand for the structures.

In this assay the target is T1, human CCR6 (Homo sapiens, UniProt P51684).
T1 construct: expressed in transfected cells; host or cells: Ba/F3 cells (murine pro-B line), hCCR6-transfected, CMV promoter, sodium butyrate induction
T1 sequence (P51684 1-374): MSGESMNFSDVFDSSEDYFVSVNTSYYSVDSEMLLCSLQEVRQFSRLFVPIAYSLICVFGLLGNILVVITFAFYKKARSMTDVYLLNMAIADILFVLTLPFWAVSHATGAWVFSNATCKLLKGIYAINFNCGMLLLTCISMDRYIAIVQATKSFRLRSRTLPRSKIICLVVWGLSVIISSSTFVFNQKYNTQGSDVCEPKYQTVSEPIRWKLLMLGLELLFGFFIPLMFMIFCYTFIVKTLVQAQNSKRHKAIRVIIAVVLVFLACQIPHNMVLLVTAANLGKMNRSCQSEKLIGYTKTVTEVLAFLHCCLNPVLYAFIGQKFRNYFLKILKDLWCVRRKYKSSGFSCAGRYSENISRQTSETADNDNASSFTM
The assay can be described thus: Migration (chemotaxis) assay, hCCR6-transfected Ba/F3 cells toward CCL20. The format is cell-based. Particulars: hCCR6-transfected Ba/F3 cells in human serum; recombinant human CCL20 10 nM; 37° C. 45 minutes; read-out: Potency (IC50 value in the migration assay). In short, it runs like this:
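Ba/F3 cells stably transfected with human CCR6 (CMV promoter), pre-induced 24 hr with sodium butyrate, suspended at 4 million/ml in human serum with test compound serially diluted from 10 μM final. Migration through 5-μm polycarbonate membrane toward 10 nM CCL20 (EC50) for 45 min at 37 °C; migrated cells quantified by CyQUANT fluorescence.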
For the compound `O=S(=O)(c1ccc(N2CCN3C[C@H](O)C[C@H]3C2)cc1)N1CCC(Nc2ccc(C(F)(F)F)cn2)CC1` (racemic) [Example 1.178], the IC50 was in the range of 100 to 10000 nM.

Turning to `CC(C)(C)OC(=O)NCCN1C(=O)C2(CC2)c2cc(-c3ccc(S(=O)(=O)N4CCC(Nc5ccc(C(F)(F)F)cn5)CC4)cc3)cnc21` [Example 1.004], the IC50 lay within 5 to 100 nM.

`O=C1Nc2ccc(-c3ccc(S(=O)(=O)N4CCC(Nc5ccc(C(F)(F)F)cn5)CC4)cc3)cc2C12CCNCC2` [Example 1.028]: the IC50 was in the range of 5 to 100 nM.

Regarding `NC(=O)N1CC(C2CN(c3ccc(S(=O)(=O)N4CCC(Nc5ccc(C(F)(F)F)cn5)CC4)cc3)C2)C1` [Example 1.145], the IC50 is 5 to 100 nM.

For `O=C1NC(=O)C2(CCCN(c3ccc(S(=O)(=O)N4CCC(Nc5ccc(C(F)(F)F)cn5)CC4)cc3)C2)N1` (stereo not shown) [Example 1.224], the IC50 was in the range of 100 to 10000 nM.

With `N#Cc1c[nH]c2ncc(-c3ccc(S(=O)(=O)N4CCC(Nc5ccc(C(F)(F)F)cn5)CC4)cc3)cc12` [Example 1.088], the IC50 is less than 5 nM.

Take `NC(=O)NC1CC2(C1)CN(c1ccc(S(=O)(=O)N3CCC(Nc4ccc(C(F)(F)F)cn4)CC3)cc1)C2` [Example 1.159]: the IC50 was 100 to 10000 nM.

On to `Cn1nc(N)c2cc(-c3ccc(S(=O)(=O)N4CCC(Nc5ccc(C(F)(F)F)cn5)CC4)cc3)ccc21` [Example 1.046], for which the IC50 is less than 5 nM.

For `Cc1c(-c2ccc(S(=O)(=O)N3CCC(Nc4ccc(C(F)(F)F)cn4)CC3)cc2)cnc2[nH]ccc12` [Example 1.023], the IC50 was less than 5 nM.

As to `Nc1cc2cc(-c3ccc(S(=O)(=O)N4CCC(Nc5ccc(C(F)(F)F)cn5)CC4)cc3)cnc2o1` [Example 1.081], the IC50 was less than 5 nM.

For `O=S(=O)(c1ccc(N2CC[C@@H](O)C2)cc1)N1CCC(Nc2ccc(C(F)(F)F)cn2)CC1` [Example 1.186], the IC50 fell in the range of 100 to 10000 nM.

For `NC(=O)c1n[nH]c2ccc(-c3ccc(S(=O)(=O)N4CCC(Nc5ccc(C(F)(F)F)cn5)CC4)cc3)cc12` [Example 1.095], the IC50 is less than 5 nM.

In the case of `O=S(=O)(c1ccc(N2CCC(c3nnn[nH]3)CC2)cc1)N1CCC(Nc2ccc(C(F)(F)F)cn2)CC1` [Example 1.128], the IC50 lay in the range of 100 to 10000 nM.

On to `O=S(=O)(c1ccc(N2CCCCC2)cc1)N1CCC(Nc2ccc(C(F)(F)F)cn2)CC1` [Example 1.235], for which the IC50 lay in the range of 5 to 100 nM.

As to `O=C1NS(=O)(=O)c2cc(-c3ccc(S(=O)(=O)N4CCC(Nc5ccc(C(F)(F)F)cn5)CC4)cc3)ccc21` [Example 1.062], the IC50 was in the range of 5 to 100 nM.

`N#Cc1cn(CCN)c2ncc(-c3ccc(S(=O)(=O)N4CCC(Nc5ccc(C(F)(F)F)cn5)CC4)cc3)cc12` [Example 1.013]: the IC50 lay in the range of 5 to 100 nM.

As to `N#Cc1c[nH]c2ccc(-c3ccc([S@](=N)(=O)N4CCC(Nc5ccc(C(F)(F)F)cn5)CC4)cc3)cc12` [Example 1.103], the IC50 was in the range of 5 to 100 nM.

Regarding `N#Cc1cn(CC(N)=O)c2ncc(-c3ccc(S(=O)(=O)N4CCC(Nc5ccc(C(F)(F)F)cn5)CC4)cc3)cc12` [Example 1.039], the IC50 was less than 5 nM.

With `CN(C)c1n[nH]c2ccc(-c3ccc(S(=O)(=O)N4CCC(Nc5ccc(C(F)(F)F)cn5)CC4)cc3)cc12` [Example 1.069], the IC50 lay in the range of 5 to 100 nM.

In the case of `NC(=O)C1CCN(c2ccc(S(=O)(=O)N3CCC(Nc4ccc(C(F)(F)F)cn4)CC3)cc2)C1` (stereo not shown) [Example 1.195], the IC50 was 100 to 10000 nM.

For `N#Cc1c(N)[nH]c2ccc(-c3ccc(S(=O)(=O)N4CCC(Nc5ccc(C(F)(F)F)cn5)CC4)cc3)cc12` [Example 1.099], the IC50 was less than 5 nM.

With `N#Cc1c[nH]c2ncc(-c3ccc(S(=O)(=O)[C@H]4CC[C@H](Nc5ccc(C(F)(F)F)cn5)CC4)cc3)cc12` [Example 1.071], the IC50 was less than 5 nM.

Regarding `O=C1NCCc2nc(-c3ccc(S(=O)(=O)N4CCC(Nc5ccc(C(F)(F)F)cn5)CC4)cc3)sc21` [Example 1.048], the IC50 was 5 to 100 nM.

On to `N#Cc1cn(CCO)c2ncc(-c3ccc(S(=O)(=O)N4CCC(Nc5ccc(C(F)(F)F)cn5)CC4)cc3)cc12` [Example 1.029], for which the IC50 was less than 5 nM.

Turning to `CC(=O)N1CCC2(CC1)C(=O)Nc1ccc(-c3ccc(S(=O)(=O)N4CCC(Nc5ccc(C(F)(F)F)cn5)CC4)cc3)cc12` [Example 1.026], the IC50 lay within 5 to 100 nM.

Consider `O=C1NC(=O)C2(CCN(c3ccc(S(=O)(=O)N4CCC(Nc5ccc(C(F)(F)F)cn5)CC4)cc3)CC2)N1` [Example 1.151], for which the IC50 is less than 5 nM.

For the compound `O=S(=O)(c1ccc(-c2ccc3[nH]nc(C(F)(F)F)c3c2)cc1)N1CCC(Nc2ccc(C(F)(F)F)cn2)CC1` [Example 1.087], the IC50 is 5 to 100 nM.

As to `CC(=O)NC1CCN(c2ccc(S(=O)(=O)N3CCC(Nc4ccc(C(F)(F)F)cn4)CC3)cc2)CC1` [Example 1.210], the IC50 lay in the range of 5 to 100 nM.

Regarding `CS(=O)(=O)NCC1CCN(c2ccc(S(=O)(=O)N3CCC(Nc4ccc(C(F)(F)F)cn4)CC3)cc2)CC1` [Example 1.141], the IC50 was in the range of 5 to 100 nM.

Turning to `O=S(=O)(c1ccc(-c2ccc3[nH]ccc3c2)cc1)N1CCC(Nc2ccc(C(F)(F)F)cn2)CC1` [Example 1.119], the IC50 is 100 to 10000 nM.

For `NC(=O)C1CCN(c2ccc(S(=O)(=O)N3CCC(Nc4ccc(C(F)(F)F)cn4)CC3)cc2)CC1` [Example 1.228], the IC50 was 5 to 100 nM.

For `NC(=O)c1cc2cc(-c3ccc(S(=O)(=O)N4CCC(Nc5ccc(C(F)(F)F)cn5)CC4)cc3)ccc2[nH]1` [Example 1.098], the IC50 was 5 to 100 nM.

As for `O=S(=O)(c1ccc(-c2ccc3c(c2)CNC3)cc1)N1CCC(Nc2ccc(C(F)(F)F)cn2)CC1` [Example 1.058], the IC50 was in the range of 100 to 10000 nM.

Turning to `O=c1[nH]c2ncc(-c3ccc(S(=O)(=O)N4CCC(Nc5ccc(C(F)(F)F)cn5)CC4)cc3)cc2o1` [Example 1.065], the IC50 fell in the range of 5 to 100 nM.

As to `O=S(=O)(c1ccc(N2CCC[C@H](O)C2)cc1)N1CCC(Nc2ccc(C(F)(F)F)cn2)CC1` [Example 1.198], the IC50 was 5 to 100 nM.

For `CS(=O)(=O)N1CCCC(c2ccc(S(=O)(=O)N3CCC(Nc4ccc(C(F)(F)F)cn4)CC3)cc2)C1` (stereo not shown) [Example 1.179], the IC50 lay in the range of 5 to 100 nM.

Turning to `CC(=O)NCC1CCN(c2ccc(S(=O)(=O)N3CCC(Nc4ccc(C(F)(F)F)cn4)CC3)cc2)CC1` [Example 1.140], the IC50 is 5 to 100 nM.

In the case of `O=C1Cc2cc(-c3ccc(S(=O)(=O)N4CCC(Nc5ccc(C(F)(F)F)cn5)CC4)cc3)ccc2N1` [Example 1.076], the IC50 was less than 5 nM.

With `O=C1Cc2cc(-c3ccc(S(=O)(=O)N4CCC(Nc5ccc(C(F)(F)F)cc5)CC4)cc3)ccc2N1` [Example 1.050], the IC50 lay within 5 to 100 nM.

In the case of `O=S(=O)(c1ccc(N2CCC(O)CC2)c(F)c1)N1CCC(Nc2ccc(C(F)(F)F)cn2)CC1` [Example 1.208], the IC50 is 100 to 10000 nM.

Take `NC(=O)CC1CN(c2ccc(S(=O)(=O)N3CCC(Nc4ccc(C(F)(F)F)cn4)CC3)cc2)C1` [Example 1.144]: the IC50 was in the range of 100 to 10000 nM.

With `CC(C)(C)OC(=O)N[C@H]1CCCN(c2ccc(S(=O)(=O)N3CCC(Nc4ccc(C(F)(F)F)cn4)CC3)cc2)C1` [Example 1.219], the IC50 lay within 100 to 10000 nM.

With `N=[S@](=O)(c1ccc(-c2ccc3oc(N)nc3c2)cc1)N1CCC(Nc2ccc(C(F)(F)F)cc2)CC1` [Example 1.105], the IC50 was in the range of 5 to 100 nM.

For the compound `Cc1n[nH]c2ccc(-c3ccc(S(=O)(=O)N4CCC(Nc5ccc(C(F)(F)F)cn5)CC4)cc3)cc12` [Example 1.094], the IC50 is 5 to 100 nM.

As to `Cc1cc(S(=O)(=O)N2CCC(Nc3ccc(C(F)(F)F)cn3)CC2)ccc1-c1ccc2c(c1)CC(=O)N2` [Example 1.018], the IC50 lay in the range of 100 to 10000 nM.

In the case of `O=c1[nH]c2ccc(-c3ccc(S(=O)(=O)N4CCC(Nc5ccc(C(F)(F)F)cn5)CC4)cc3)cc2o1` [Example 1.097], the IC50 was less than 5 nM.

For `O=C(CO)N1CCN(c2ccc(S(=O)(=O)N3CCC(Nc4ccc(C(F)(F)F)cn4)CC3)cc2)CC1` [Example 1.194], the IC50 lay within 5 to 100 nM.

For `O=C1COC2(CCN(c3ccc(S(=O)(=O)N4CCC(Nc5ccc(C(F)(F)F)cn5)CC4)cc3)CC2)CN1` [Example 1.147], the IC50 was 5 to 100 nM.

Take `CC(=O)N[C@H]1CCN(c2ccc(S(=O)(=O)N3CCC(Nc4ccc(C(F)(F)F)cn4)CC3)cc2)C1` [Example 1.192]: the IC50 fell in the range of 100 to 10000 nM.

As to `CC1(C)NC(=O)c2ncc(-c3ccc(S(=O)(=O)N4CCC(Nc5ccc(C(F)(F)F)cn5)CC4)cc3)cc21` [Example 1.009], the IC50 is less than 5 nM.

Turning to `NC(=O)C1CN(c2ccc(S(=O)(=O)N3CCC(Nc4ccc(C(F)(F)F)cn4)CC3)cc2)CCO1` (stereo not shown) [Example 1.202], the IC50 lay within 5 to 100 nM.

Turning to `CN1CCC2(CC1)C(=O)Nc1ccc(-c3ccc(S(=O)(=O)N4CCC(Nc5ccc(C(F)(F)F)cn5)CC4)cc3)cc12` [Example 1.006], the IC50 was in the range of 100 to 10000 nM.

Turning to `O=S(=O)(c1ccc(-c2ccc3c(c2)CCC3)cc1)N1CCC(Nc2ccc(C(F)(F)F)cn2)CC1` [Example 1.120], the IC50 lay within 100 to 10000 nM.

In the case of `O=C1NCCC12CCN(c1ccc(S(=O)(=O)N3CCC(Nc4ccc(C(F)(F)F)cn4)CC3)cc1)CC2` [Example 1.153], the IC50 lay within 5 to 100 nM.

`CC(=O)N1CCCN(c2ccc(S(=O)(=O)N3CCC(Nc4ccc(C(F)(F)F)cn4)CC3)cc2)CC1` [Example 1.201]: the IC50 is 100 to 10000 nM.

Values taken from US12012403B2, “Aryl sulfonyl compounds as CCR6 inhibitors” (CHEMOCENTRYX, INC., priority 2021, dated 2024).
